Test results taken from PubChem BioAssay (NCI).
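Results reflect a 48-hour exposure of cells in 96-well plates to compound at five concentrations. Here, GI50 denotes the concentration required for 50% inhibition of growth. TGI denotes the concentration required for complete inhibition of growth.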

Assays:
Test in all cases: NCI-60 cell line screen, 48 h
RXF 393 renal = test system: RXF 393 renal
MALME-3M melanoma = test system: MALME-3M melanoma
PC-3 prostate = test system: PC-3 prostate
HL-60(TB) leukemia = test system: HL-60(TB) leukemia
SF-268 CNS = test system: SF-268 CNS
EKVX NSCLC = test system: EKVX NSCLC
U251 CNS = test system: U251 CNS
HOP-62 NSCLC = test system: HOP-62 NSCLC
NCI-H522 lung = test system: NCI-H522 lung
DU-145 prostate = test system: DU-145 prostate

SMILES	TGI (RXF 393 renal) [µM]	TGI (MALME-3M melanoma) [µM]	TGI (PC-3 prostate) [µM]	TGI (HL-60(TB) leukemia) [µM]	TGI (SF-268 CNS) [µM]	TGI (EKVX NSCLC) [µM]	TGI (U251 CNS) [µM]	TGI (HOP-62 NSCLC) [µM]	TGI (NCI-H522 lung) [µM]	GI50 (DU-145 prostate) [µM]	TGI (DU-145 prostate) [µM]	GI50 (HOP-62 NSCLC) [µM]
CC1(C)CCC2=C(O1)c1ccccc1C(=Nc1ccc([N+](=O)[O-])cc1)C2=O	32.7	29.7	31.5	> 100	> 100	32.7	28.9	34.1	30.1	16.8	30.4	
O=C(CSc1nc2ccc(I)cc2c(=O)n1Cc1ccccc1)Nc1ccccc1	34.1	43.8	31.9	> 100	29.2	11.6	48.8	26.7	90.6		> 100	
C[Si](C)(C)OC1(C#N)c2ccccc2CCCC12CCCC2 (stereo not drawn)	88.1	> 100	> 100	39.2	> 100	> 100	92.2	> 100	77.7		> 100	
CSc1nnnc2ccccc12	> 100	> 100	> 100	> 100	> 100	> 100	> 100	> 100	> 100		> 100	
CCn1c(CCCc2nc3c([nH]2)c(=O)n(C)c(=O)n3C)nc2c1c(=O)n(C)c(=O)n2C	> 100	> 100	> 100	> 100	> 100	> 100	> 100	> 100	> 100		> 100	
CCOC(=O)Cc1[nH]c(C(=O)c2ccccc2)cc1C(=O)c1ccccc1	> 100	> 100	> 10	> 100	> 100	> 100	> 100	51.7	> 100		> 10	
N#CCCN(CCCCN(CCC#N)C(=O)Nc1ccccc1)C(=O)Nc1ccccc1	> 100	> 100	> 100	> 100	> 100	> 100	> 100	> 100	> 100		> 100	
COc1cc2c3c(n(C)c(=O)c2cc1OC)-c1cc2c(cc1/C3=C\CCCCl)OCO2	26.8	> 100	> 100	> 100	> 100	> 100	> 100	62.8	> 100	35.9	> 100	17.5
C=C1c2c(n(S(=O)(=O)c3ccccc3)c3ccccc23)[C@@]2(C(=O)OC)CC3C=CC2N1C3	> 100	> 100	> 100	> 100	> 100	> 100	> 100	> 100	> 100		> 100	
Clc1nc2nc(N3CCNCC3)nc(N3CCCC3)c2[nH]1	27.9	36.3	33.9	42.8	40.4	31.8	31.8	36.2	33.7		30.9	
N=C1C=CC(=C(c2ccc(N)cc2)c2ccc(N)cc2)C=C1	23	13.3	12.4	36.1	14.9	51.4	22.6	16.8	12.8		17.7	
CCOc1ccc2c(c1)C(/C(C(Cl)=C(Cl)Cl)=[N+](/[O-])OC(=O)c1ccccc1)=N2	> 100	> 100	> 100	> 100	> 100	> 100	> 100	> 100	> 100		> 100	
